Source: PMC10854894, “A New Benzo[6,7]oxepino[3,2-b] Pyridine Derivative Induces Apoptosis in Canine Mammary Cancer Cell Lines” (Animals : an Open Access Journal from MDPI, 2024)

Assays:
Type in all cases: cell-based, canine
REM134 cells [1] = test: Transwell migration assay; conditions: 24 h, vs control (0.1% DMSO)
Description: (§1) The CMC cell migration assay was carried out using Transwell 24-well microplates with an 8 µm pore size (Costar, Corning, NY, USA). Both CMC cell lines were seeded into the upper Transwell insert at a density of 5 × 10^3 cells/well, containing various concentrations of MPOBA (0–200 µM) with 5% FBS in DMEM media. Then, 10% FBS in DMEM medium was added into the lower chambers, and the cells were incubated for 24 h. After an incubation duration of 24 h, the non-invaded cells were removed with a cotton swab from the upper surface of the membrane, and the invaded cells on the lower surface of the membrane were fixed with 100% methanol for 1 min and stained with the Wright–Giemsa stain for 20 min. The number of migrated cells was averaged by counting five random microscope fields for each sample at 4 × magnification in four independent experiments.

CMGT071020 cells [2] = test: Transwell migration assay; conditions: 24 h, vs control (0.1% DMSO)
Description: as §1

REM134 cells [3] = test: Relative mRNA expression by qRT-PCR
Description: (§2) After the treatment of the cells with MPOBA at varying concentrations from 0 to 200 µM for 48 h, the total RNA was isolated using a GeneJet RNA Purification kit (Thermo Fisher Scientific, Waltham, MA, USA) according to the manufacturer’s protocol for adherent tissue culture cells using the spin-column method. The RNA’s concentration and purity (A260/A280 ratio) were spectrophotometrically determined using a NanoDrop One/OneC Microvolume UV-Vis Spectrophotometer (Thermo Fisher Scientific, Waltham, MA, USA). To remove genomic DNA contamination, the samples were treated with RQ1 RNase-Free DNase (Promega, Madison, WI, USA) according to the manufacturer’s instructions. First-strand cDNA was obtained using a SuperScript® III First-Strand Synthesis kit for reverse-transcription polymerase chain reaction (RT-PCR) (Invitrogen, Carlsbad, CA, USA) according to the manufacturer’s protocol. Briefly, total RNA (1 μg), oligo (dT) primers (50 µM), a dNTP mix (10 mM), the cDNA synthesis mix, and nuclease-free water were added to obtain a final volume of 20 µL. PCR amplification was performed using a G-Storm GS482 PCR thermal cycler (Gene Technologies, Somerset, UK) with the following reaction profile: 65 °C for 5 min, 50 °C for 50 min, 85 °C for 5 min, and 37 °C for 5 min. The relative mRNA expression levels of canine SNAIL, SLUG, TWIST, E-cadherin, N-cadherin, TP53, EGFR, BAX, and BCL-2 were normalized to canine glyceraldehyde 3-phosphate dehydrogenase (GAPDH). The relative mRNA expression levels were calculated using the 2^–∆∆ Cq method. The transcriptional levels of all genes were determined in four replicates via qRT-PCR using a CFX 96 Touch real-time PCR detection system (Bio-Rad, Hercules, CA, USA). The qRT-PCR was performed using a reaction mixture containing 2 μL of the cDNA template, 10 μL of the iTaq Universal SYBR Green Supermix (Bio-Rad, Hercules, CA, USA), and 1 μL of each primer. The qRT-PCR protocol for the SNAIL, SLUG, TWIST, EGFR, TP53, BAX, BCL-2, and GAPDH genes was carried out as follows: initial denaturation at 94 °C for 3 min, denaturation at 94 °C for 15 s, annealing at 60 °C for 30 s, and extension at 72 °C for 1 min (40 cycles), and dissociation curves were generated between 65 °C and 95 °C to assess the specificity of the amplicons. The qRT-PCR protocol for E-cadherin and N-cadherin was carried out according to Yu et al..

CMGT071020 cells [4] = test: Relative mRNA expression by qRT-PCR
Description: as §2

REM134 cells [5] = test: Wound healing assay; conditions: REM134, 100 or 200 µM, 12 or 24 h, vs untreated control
Description: (§3) The effect of MPOBA on cell migration was examined using a two-dimensional wound healing assay. The REM134 and CMGT071020 cell lines were seeded in a 6-well plate at a density of 5 × 10^5 cells/well and allowed to incubate for 24 h until they reached 100% confluence. The cells were scratched using a sterile 1 mL pipette tip and then treated with MPOBA at concentrations ranging from 0 to 200 µM for 24 h. Images of the scratches were captured at 0, 12, and 24 h post-treatment using phase-contrast microscopy. The wound areas were checked and measured using the NIS-Elements D imaging software program version 5.2 (Nikon, Tokyo, Japan). The cell migration ability was calculated as a percentage of the area covered by cells at 24 h compared to the initial wound area at 0 h. The experiments were repeated four times.

CMGT071020 cells [6] = test: Wound healing assay; conditions: CMGT071020, 100 or 200 µM, 12 or 24 h, vs untreated control
Description: as §3

[7] = REM134, 200 µM, 48 h, vs control
[8] = REM134, 48 h, treated vs untreated
[9] = CMGT071020, 200 µM, 48 h, vs control

Cc1ncccc1Oc1ccccc1C=O [MPOBA, 2-((2-methylpyridin-3-yl)oxy)benzaldehyde]
percentage of migrated cells (REM134 cells [1]; REM134, 100 µM): 35%
percentage of migrated cells (REM134 cells [1]; REM134, 200 µM): 26%
percentage of migrated cells (CMGT071020 cells [2]; CMGT071020, 100 µM): 68%
percentage of migrated cells (CMGT071020 cells [2]; CMGT071020, 200 µM): 40%
BAX mRNA expression level (REM134 cells [3]; [7]): dramatically increased
BCL-2 mRNA expression level (REM134 cells [3]; [7]): significantly decreased
TP53 mRNA expression level (REM134 cells [3]; [7]): significantly increased
SLUG mRNA expression level (REM134 cells [3]; [8]): not significantly different
TWIST mRNA expression level (REM134 cells [3]; [8]): not significantly different
E-cadherin mRNA expression level (REM134 cells [3]; REM134, 48 h, vs control): upregulation
EGFR mRNA expression level (REM134 cells [3]; REM134, 48 h, vs control): significantly decreased
N-cadherin mRNA expression level (REM134 cells [3]; REM134, 48 h, vs control): significant downregulation
SNAIL mRNA expression level (REM134 cells [3]; REM134, 48 h, vs control): significant downregulation
BAX mRNA expression level (CMGT071020 cells [4]; [9]): dramatically increased
BCL-2 mRNA expression level (CMGT071020 cells [4]; [9]): significantly decreased
TP53 mRNA expression level (CMGT071020 cells [4]; [9]): significantly increased
TWIST mRNA expression level (CMGT071020 cells [4]; CMGT071020, 48 h, treated vs untreated): not significantly different
E-cadherin mRNA expression level (CMGT071020 cells [4]; CMGT071020, 48 h, vs control): upregulation
EGFR mRNA expression level (CMGT071020 cells [4]; CMGT071020, 48 h, vs control): significantly decreased
N-cadherin mRNA expression level (CMGT071020 cells [4]; CMGT071020, 48 h, vs control): significant downregulation
SLUG mRNA expression level (CMGT071020 cells [4]; CMGT071020, 48 h, vs control): significant downregulation
SNAIL mRNA expression level (CMGT071020 cells [4]; CMGT071020, 48 h, vs control): significant downregulation
cell migration (wound closure) (REM134 cells [5]): significant decline in cell migration
cell migration (wound closure) (CMGT071020 cells [6]): significant decline in cell migration
